The values below come from patent publication US8614193.

The mark [1] stands for this setting: disulfide bond, 15-membered ring, I2 (10 eq), CH2Cl2/MeOH 9:1, 0.43 mM.

Values joined by “and” are separate entries in the source; they are usually repeats but may differ in a detail not shown here. Identical values can stand only once. Like-named read-outs stand apart in the source and are kept apart here.

The molecule `CC(C)(C)OC(=O)CC[C@H]1NC(=O)C[C@@H](/C=C/CCSC(c2ccccc2)(c2ccccc2)c2ccccc2)OC(=O)CC(O)C2(CC2)NC(=O)[C@@H](CSC(c2ccccc2)(c2ccccc2)c2ccccc2)NC1=O` (stereo partly drawn) yielded a ring closure, isolated yield (from (R)-4-{(S)-1-[1-(2-Carboxy-1-hydroxy-ethyl)-cyclopropylcarbamoyl]-2-tritylsulfanyl-ethylcarbamoyl}-4-((E)-(S)-3-hydroxy-7-tritylsulfanyl-hept-4-enoylamino)-butyric acid tert-butyl ester, ester bond, 15-membered ring, MNBA/DMAP, CH2Cl2, 1.07 mM) of 56%.

For `CC(C)(C)OC(=O)CC[C@H]1NC(=O)C[C@@H](/C=C/CCSC(c2ccccc2)(c2ccccc2)c2ccccc2)OC(=O)CNC(=O)C(C)(C)NC(=O)[C@@H](CSC(c2ccccc2)(c2ccccc2)c2ccccc2)NC1=O`, the ring closure, isolated yield (from (E)-(S)-3-hydroxy-7-tritylsulfanyl-hept-4-enoyl-dGlu(OtBu)-dCys(Trt)-Aib-Gly-OH, ester bond, 16-membered ring, MNBA/DMAP, CH2Cl2/THF, 0.94 mM, 2 steps) was 63%.

In the case of `CC(C)(C)OC(=O)CC[C@H]1NC(=O)C[C@@H](/C=C/CCSC(c2ccccc2)(c2ccccc2)c2ccccc2)OC(=O)CNC(=O)C2(CC2)NC(=O)[C@@H](CSC(c2ccccc2)(c2ccccc2)c2ccccc2)NC1=O`, the ring closure, isolated yield (from (E)-(S)-3-hydroxy-7-tritylsulfanyl-hept-4-enoyl-dGlu(OtBu)-dCys(Trt)-Acc-Gly-OH, ester bond, 16-membered ring, MNBA/DMAP, CH2Cl2/THF, 0.85 mM, 25.0 °C, 2 steps) worked out at 29%.

Under “from (3S,4E)-3-hydroxy-7-(tritylthio)hept-4-enoyl-Ac3c-dCys(Trt)-Val-Gly-OH?, ester bond, 16-membered ring, MNBA/DMAP, CH2Cl2/THF, 0.77 mM, 2 steps”, `CC(C)[C@@H]1NC(=O)[C@@H](CSC(c2ccccc2)(c2ccccc2)c2ccccc2)NC(=O)C2(CC2)NC(=O)C[C@@H](/C=C/CCSC(c2ccccc2)(c2ccccc2)c2ccccc2)OC(=O)CNC1=O` gave a ring closure, isolated yield of 50%.

Take `O=C1C[C@@H](/C=C/CCSC(c2ccccc2)(c2ccccc2)c2ccccc2)OC(=O)CNC(=O)C2(CC2)NC(=O)[C@@H](CSC(c2ccccc2)(c2ccccc2)c2ccccc2)NC(=O)CN1`: the ring closure, isolated yield (from (3S,4E)-3-hydroxy-7-(tritylthio)hept-4-enoyl-Gly-dCys(Trt)-Ac3c-Gly-OH, ester bond, 16-membered ring, MNBA/DMAP, CH2Cl2, 0.85 mM) is 45%.

In turn, `O=C1C[C@@H](/C=C/CCSC(c2ccccc2)(c2ccccc2)c2ccccc2)OC(=O)CNC(=O)C2(CC2)NC(=O)[C@@H](CSC(c2ccccc2)(c2ccccc2)c2ccccc2)NC(=O)[C@@H](Cc2cccc(Cl)c2)N1` came in with a ring closure, isolated yield (from (3S,4E)-3-hydroxy-7-(tritylthio)hept-4-enoyl-dPhe(3-Cl)-dCys(Trt)-Acc(1-aminocyclopropanecarbonyl)-Gly-OH, ester bond, 16-membered ring, MNBA/DMAP, CH2Cl2, 1.06 mM) of 40%.

In the case of `O=C1C[C@@H](/C=C/CCSC(c2ccccc2)(c2ccccc2)c2ccccc2)OC(=O)CNC(=O)C2(CC2)NC(=O)[C@@H](CSC(c2ccccc2)(c2ccccc2)c2ccccc2)NC(=O)[C@@H](Cc2ccccc2)N1`, the ring closure, isolated yield (from (3S,4E)-3-hydroxy-7-(tritylthio)hept-4-enoyl-dPhe-dCys(Trt)-Acc(1-aminocyclopropanecarbonyl)-Gly-OH, ester bond, 16-membered ring, MNBA/DMAP, CH2Cl2/THF, 0.83 mM, 2 steps) was 58%.

`O=C1C[C@@H](/C=C/CCSC(c2ccccc2)(c2ccccc2)c2ccccc2)OC(=O)CNC(=O)C2(CC2)NC(=O)[C@@H](CSC(c2ccccc2)(c2ccccc2)c2ccccc2)NC(=O)[C@@H](Cc2cccnc2)N1`: the ring closure, isolated yield (from (3S,4E)-3-hydroxy-7-(tritylthio)hept-4-enoyl-d3Pal-dCys(Trt)-Acc(1-aminocyclopropanecarbonyl)-Gly-OH?, ester bond, 16-membered ring, MNBA/DMAP, CH2Cl2/THF, 0.67 mM, 2 steps) stood at 96%.

Consider “3-((E)-(1S,9S,20R)-5-Hydroxy-6,6-cyclopropyl-3,8,18,21-tetraoxo-2-oxa-11,12-dithia-7,19,22-triaza-bicyclo[7.7.6]docos-15-en-20-yl)-propionic acid tert-butyl ester”, for which the ring closure, isolated yield (disulfide bond, 15-membered ring, I2, CH2Cl2/MeOH 9:1, 0.39 mM) was 32% and 26%.

Turning to “3-((E)-(1S,10S,21R)-7,7-Cyclopropyl-3,6,9,19,22-pentaoxo-2-oxa-12,13-dithia-5,8,20,23-tetraaza-bicyclo[8.7.6]tricos-16-en-21-yl)-propionic acid tert-butyl ester”, the ring closure, isolated yield (disulfide bond, 15-membered ring, I2, CH2Cl2/MeOH 9:1, 0.4 mM, 25.0 °C) stood at 65%.

Turning to “3-((E)-(1S,10S,21R)-7,7-Dimethyl-3,6,9,19,22-pentaoxo-2-oxa-12,13-dithia-5,8,20,23-tetraaza-bicyclo[8.7.6]tricos-16-en-21-yl)-propionic acid tert-butyl ester”, the ring closure, isolated yield (disulfide bond, 15-membered ring, I2, CH2Cl2/MeOH 9:1, 0.35 mM, 25.0 °C) stood at 81%.

Under “disulfide bond, 15-membered ring, I2, CH2Cl2/MeOH 9:1, 0.46 mM”, “3-((E)-(1S,10S,21R)-7-cyclobutyl-3,6,9,19,22-pentaoxo-2-oxa-12,13-dithia-5,8,20,23-tetraaza-bicyclo[8.7.6]tricos-16-en-21-yl)-propionic acid tert-butyl ester” yielded a ring closure, isolated yield of 93%.

In the case of `CC(C)(C)OC(=O)CC[C@H]1NC(=O)CC(/C=C/CCSC(c2ccccc2)(c2ccccc2)c2ccccc2)OC(=O)CNC(=O)C2(CCC2)NC(=O)C(CSC(c2ccccc2)(c2ccccc2)c2ccccc2)NC1=O` (stereo in doubt), the ring closure, isolated yield (from (3S,4E)-3-hydroxy-7-(tritylthio)hept-4-enoyl-dGlu(tBu)-dCys(Trt)-Ac4c-Gly-OH, ester bond, 16-membered ring, MNBA/DMAP, CH2Cl2/THF, 1.13 mM, 2 steps) was 51%.

Take `CC(C)[C@H]1NC(=O)[C@@H](CSC(c2ccccc2)(c2ccccc2)c2ccccc2)NC(=O)C(C)(C)NC(=O)CC(/C=C/CCSC(c2ccccc2)(c2ccccc2)c2ccccc2)OC(=O)CNC1=O` (stereo in doubt): the ring closure, isolated yield (from (3S,4E)-3-hydroxy-7-(tritylthio)hept-4-enoyl-Aib-dCys(Trt)-dVal-Gly-OH, ester bond, 16-membered ring, MNBA/DMAP, CH2Cl2/THF, 1.0 mM, 2 steps) worked out at 47%.

As to `O=C1CC(/C=C/CCSC(c2ccccc2)(c2ccccc2)c2ccccc2)OC(=O)CNC(=O)C2(CC2)NC(=O)[C@@H](CSC(c2ccccc2)(c2ccccc2)c2ccccc2)NC(=O)[C@@H](Cc2ccncc2)N1` (stereo in doubt), where the note is “from (3S,4E)-3-hydroxy-7-(tritylthio)hept-4-enoyl-d4Pal-dCys(Trt)-Acc(1-aminocyclopropanecarbonyl)-Gly-OH, ester bond, 16-membered ring, MNBA/DMAP, CH2Cl2/THF, 0.97 mM, 2 steps”, the ring closure, isolated yield came to 54%.

For “(E)-(1S,10S)-7,7-Cyclopropyl-2-oxa-12,13-dithia-5,8,20,23-tetraaza-bicyclo[8.7.6]tricos-16-ene-3,6,9,19,22-pentaone”, the ring closure, isolated yield (disulfide bond, 15-membered ring, I2, CH2Cl2/MeOH 9:1, 0.2 mM) worked out at 53%.

Consider “(E)-(1S,10S)-7-Isopropyl-21,21-cyclopropyl-2-oxa-12,13-dithia-5,8,20,23-tetraaza-bicyclo[8.7.6]tricos-16-ene-3,6,9,19,22-pentaone”, for which the ring closure, isolated yield (disulfide bond, 15-membered ring, I2, CH2Cl2/MeOH 9:1) is 76%.

The molecule “(E)-(1S,10S,21R)-7,7-Cyclopropyl-21-pyridin-3-ylmethyl-2-oxa-12,13-dithia-5,8,20,23-tetraaza-bicyclo[8.7.6]tricos-16-ene-3,6,9,19,22-pentaone” came in with a ring closure, isolated yield (disulfide bond, 15-membered ring, I2 (10 eq), CH2Cl2/MeOH 9:1, 0.35 mM) of 24%.

Turning to “(E)-(1S,10S,21R)-7-cyclopropyl-21-pyridin-4-ylmethyl-2-oxa-12,13-dithia-5,8,20,23-tetraaza-bicyclo[8.7.6]tricos-16-ene-3,6,9,19,22-pentaone”, the ring closure, isolated yield under setting [1] turned out to be 2%.

“(E)-(1S,10S,21R)-21-(3-Chloro-benzyl)-7,7-cyclopropyl-2-oxa-12,13-dithia-5,8,20,23-tetraaza-bicyclo[8.7.6]tricos-16-ene-3,6,9,19,22-pentaone” showed a ring closure, isolated yield (disulfide bond, 15-membered ring, I2, CH2Cl2/MeOH 9:1, 0.19 mM) of 32%.

“(E)-(1S,10S,21R)-21-Benzyl-7,7-cyclopropyl-2-oxa-12,13-dithia-5,8,20,23-tetraaza-bicyclo[8.7.6]tricos-16-ene-3,6,9,19,22-pentaone” registered a ring closure, isolated yield under setting [1] of 81%.
